The target in data set [1] is T1, σ1R (Mus musculus, UniProt O55242). Nature of the data set: In vivo PET-CT imaging with [^11C]HCC0929 in mice brain. On the set-up: species or system mice (BALB/c).
Data set [2] deals with guinea pig σ2 receptor. The conditions noted are these: read-out: σ2R Ki; cited from earlier work.
The target in data set [3] is T2, guinea pig σ1 receptor (Cavia porcellus, UniProt Q60492). The conditions noted are these: read-out: σ1R Kd or Ki; Kd or Ki not specified; cited from earlier work.
Data set [4] concerns the target T1, σ1R. Nature of the data set: In vivo PET-CT imaging with [^11C]HCC0923 in mice brain. The settings on record: self-blocking, 12.5 mg/kg i.v. 5 min before tracer. The arrangement: species or system mice (BALB/c).
The nature of data set [5]: Experimental logD. It is filed as physicochemical. The settings on record: PBS (aqueous phase; partition solvent not stated), pH 7.4.
Data set [6] concerns the target T2, guinea pig σ1 receptor. Briefly: Ex vivo σ1 receptor binding assay. The conditions noted are these: for Selectivity (σ2R/σ1R): ratio of σ2R Ki to σ1R Ki.

Data on 3 compounds can be found in publication PMC6900558 (Acta Pharmaceutica Sinica. B, 2019).

Each structure is given as a SMILES string. Where two headings read alike, the source gives them in different places.

T2 sequence (Q60492 whole entry): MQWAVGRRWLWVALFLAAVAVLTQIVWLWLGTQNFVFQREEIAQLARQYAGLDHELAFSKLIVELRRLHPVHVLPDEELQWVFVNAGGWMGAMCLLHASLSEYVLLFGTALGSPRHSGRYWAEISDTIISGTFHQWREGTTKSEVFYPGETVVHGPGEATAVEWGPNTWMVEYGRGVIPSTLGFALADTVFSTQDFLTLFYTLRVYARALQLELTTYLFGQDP
T1 sequence (O55242 whole entry): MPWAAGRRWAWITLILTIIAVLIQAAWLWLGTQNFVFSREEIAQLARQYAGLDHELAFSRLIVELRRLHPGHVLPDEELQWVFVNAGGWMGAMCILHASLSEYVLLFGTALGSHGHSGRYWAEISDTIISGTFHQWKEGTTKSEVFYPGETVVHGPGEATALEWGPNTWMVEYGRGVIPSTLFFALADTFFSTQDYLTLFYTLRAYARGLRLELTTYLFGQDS

By Ki is commonly meant a dissociation constant, usually derived from enzyme kinetics or from competition with a known ligand. Regarding `CCCN1CCC=C(c2cc(-c3ccc(C)cc3)no2)C1` [PD 144418], the “reduction of [^11C]HCC0929 binding in mice brain” value in data set [1] (pretreatment 2.99 mg/kg i.v., change between peak at ∼5 min and lowest at 60 min) was about 67%. The Ki in data set [2] was 1380 ± 179 nM; in data set [3] it was 4.3 ± 0.1 nM.

Broadly, the logD is the decadic logarithm of the distribution of all forms, ionised or not, between an organic phase and buffer at a given pH. `COc1ccc(-n2nc(OCCCN3CCCCC3)ccc2=O)cc1` [compound 13, 2-(4-Methoxyphenyl)-6-(3-(piperidin-1-yl)propoxy)pyridazin-3(2H)-one]: the “reduction in [^11C]HCC0923 brain uptake” value in data set [4] was about 54%. Besides, the logD in data set [5] came out at 0.89 ± 0.06. In data set [6], the affinity, expressed as Ki, was 10.3 ± 1.1 nM and the “Selectivity (σ2R/σ1R)” value is given as 111.3.

Consider `CN1CCN(CCCOc2ccc(=O)n(-c3ccc(Cl)c(Cl)c3)n2)CC1` [compound 15, 2-(3,4-Dichlorophenyl)-6-(3-(4-methylpiperazin-1-yl)propoxy)pyridazin-3(2H)-one], for which the “reduction in [^11C]HCC0929 mice brain uptake” value in data set [1] (self-blocking, 2.88 mg/kg i.v. 5 min before tracer) is on record as about 58%. For the same compound, the log distribution coefficient (logD) in data set [5] came out at 1.73 ± 0.08. Also, in data set [6], the affinity corresponds to a Ki of 5.6 ± 0.7 nM and the “Selectivity (σ2R/σ1R)” value was 272.8.
